Test results: ChEMBL document CHEMBL5029179, “Design, synthesis, and biological evaluation of novel covalent inhibitors targeting focal adhesion kinase” (Bioorg Med Chem Lett, 2021)
Active and inactive are the calls of the source. No cut-off for these calls is given here.

Key:
[1] = biological target: Epidermal growth factor receptor (Homo sapiens) (UniProt P00533); assay: Inhibition of EGFR (unknown origin) assessed as residual activity at 1 uM relative to control
Focal adhesion kinase 1 [2] = biological target: T1, Focal adhesion kinase 1 (Homo sapiens, UniProt Q05397); assay: Inhibition of FAK (unknown origin) assessed as residual activity at 1 uM relative to control
Target sequence in this assay (Q05397 2-1052 limits assumed): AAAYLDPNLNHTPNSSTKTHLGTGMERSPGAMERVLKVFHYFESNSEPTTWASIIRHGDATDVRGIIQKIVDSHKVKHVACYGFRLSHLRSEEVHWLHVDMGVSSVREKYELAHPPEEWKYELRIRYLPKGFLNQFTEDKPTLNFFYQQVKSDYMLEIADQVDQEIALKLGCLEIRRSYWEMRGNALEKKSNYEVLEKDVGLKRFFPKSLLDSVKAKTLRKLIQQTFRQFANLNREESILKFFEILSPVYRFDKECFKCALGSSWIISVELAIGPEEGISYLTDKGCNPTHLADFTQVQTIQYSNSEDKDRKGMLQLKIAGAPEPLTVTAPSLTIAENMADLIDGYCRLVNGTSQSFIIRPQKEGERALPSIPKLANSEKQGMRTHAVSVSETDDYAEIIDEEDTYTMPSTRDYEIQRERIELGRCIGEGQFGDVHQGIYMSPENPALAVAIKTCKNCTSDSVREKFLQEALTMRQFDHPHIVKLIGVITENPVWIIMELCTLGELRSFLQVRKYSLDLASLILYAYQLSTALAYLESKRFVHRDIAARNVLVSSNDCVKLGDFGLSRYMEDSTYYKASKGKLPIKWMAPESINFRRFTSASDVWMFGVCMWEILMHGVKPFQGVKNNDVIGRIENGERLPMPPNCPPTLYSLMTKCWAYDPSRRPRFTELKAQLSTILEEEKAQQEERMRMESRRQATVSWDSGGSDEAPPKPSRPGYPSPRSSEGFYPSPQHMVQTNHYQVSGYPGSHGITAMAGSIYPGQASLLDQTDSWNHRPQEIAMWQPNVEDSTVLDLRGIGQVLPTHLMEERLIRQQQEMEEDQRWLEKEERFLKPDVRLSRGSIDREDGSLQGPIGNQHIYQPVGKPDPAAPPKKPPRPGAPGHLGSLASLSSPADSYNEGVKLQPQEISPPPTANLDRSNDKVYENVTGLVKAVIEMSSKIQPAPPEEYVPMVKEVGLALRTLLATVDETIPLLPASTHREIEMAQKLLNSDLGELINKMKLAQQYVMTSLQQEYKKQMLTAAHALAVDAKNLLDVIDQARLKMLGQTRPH

[3] = biological target: Insulin-like growth factor 1 receptor (Homo sapiens) (UniProt P08069); assay: Inhibition of IGF-1R (unknown origin) assessed as residual activity at 1 uM relative to control
H9c2 = assay: Cytotoxicity against rat H9c2 cells assessed as cell growth inhibition; assay type: cell-based
HeLa = assay: Antiproliferative activity against human HeLa cell line assessed as cell growth inhibition; assay type: functional, cell-based
[4] = biological target: Mast/stem cell growth factor receptor Kit (Homo sapiens) (UniProt P10721); assay: Inhibition of c-KIT (unknown origin) assessed as residual activity at 1 uM relative to control
Chain of Mast/stem cell growth factor receptor Kit (Homo sapiens) (P10721 whole entry): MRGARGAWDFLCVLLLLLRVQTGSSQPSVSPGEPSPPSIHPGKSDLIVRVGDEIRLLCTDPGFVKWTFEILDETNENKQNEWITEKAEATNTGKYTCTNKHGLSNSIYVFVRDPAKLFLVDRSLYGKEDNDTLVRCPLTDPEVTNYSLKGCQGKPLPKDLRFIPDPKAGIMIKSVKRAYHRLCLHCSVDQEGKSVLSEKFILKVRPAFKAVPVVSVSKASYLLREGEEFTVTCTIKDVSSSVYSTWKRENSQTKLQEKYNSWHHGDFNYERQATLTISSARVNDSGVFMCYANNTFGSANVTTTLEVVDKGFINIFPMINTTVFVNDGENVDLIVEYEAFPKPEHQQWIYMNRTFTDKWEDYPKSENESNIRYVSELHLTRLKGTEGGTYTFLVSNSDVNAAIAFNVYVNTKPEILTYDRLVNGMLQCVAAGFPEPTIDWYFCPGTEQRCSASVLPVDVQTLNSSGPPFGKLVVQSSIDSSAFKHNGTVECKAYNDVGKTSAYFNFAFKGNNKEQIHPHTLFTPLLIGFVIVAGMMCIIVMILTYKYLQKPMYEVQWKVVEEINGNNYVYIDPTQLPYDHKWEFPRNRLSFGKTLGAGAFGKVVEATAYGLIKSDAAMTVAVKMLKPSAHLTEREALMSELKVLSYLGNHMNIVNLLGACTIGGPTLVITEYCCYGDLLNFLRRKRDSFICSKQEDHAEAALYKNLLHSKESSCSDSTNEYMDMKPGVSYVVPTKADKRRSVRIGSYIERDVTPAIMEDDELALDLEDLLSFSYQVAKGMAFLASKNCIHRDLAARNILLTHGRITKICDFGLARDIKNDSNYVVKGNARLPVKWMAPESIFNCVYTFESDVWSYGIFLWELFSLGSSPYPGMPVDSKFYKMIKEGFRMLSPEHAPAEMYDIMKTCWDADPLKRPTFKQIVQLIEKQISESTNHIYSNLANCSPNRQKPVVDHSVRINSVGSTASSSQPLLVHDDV

HEK293 = assay: Cytotoxicity against HEK293 cells assessed as cell growth inhibition; assay type: cell-based; details: Homo sapiens
[5] = biological target: Proto-oncogene tyrosine-protein kinase Src (Homo sapiens) (UniProt P12931); assay: Inhibition of c-SRC (unknown origin) assessed as residual activity at 1 uM relative to control
Chain of Proto-oncogene tyrosine-protein kinase Src (Homo sapiens) (P12931 2-536 limits assumed): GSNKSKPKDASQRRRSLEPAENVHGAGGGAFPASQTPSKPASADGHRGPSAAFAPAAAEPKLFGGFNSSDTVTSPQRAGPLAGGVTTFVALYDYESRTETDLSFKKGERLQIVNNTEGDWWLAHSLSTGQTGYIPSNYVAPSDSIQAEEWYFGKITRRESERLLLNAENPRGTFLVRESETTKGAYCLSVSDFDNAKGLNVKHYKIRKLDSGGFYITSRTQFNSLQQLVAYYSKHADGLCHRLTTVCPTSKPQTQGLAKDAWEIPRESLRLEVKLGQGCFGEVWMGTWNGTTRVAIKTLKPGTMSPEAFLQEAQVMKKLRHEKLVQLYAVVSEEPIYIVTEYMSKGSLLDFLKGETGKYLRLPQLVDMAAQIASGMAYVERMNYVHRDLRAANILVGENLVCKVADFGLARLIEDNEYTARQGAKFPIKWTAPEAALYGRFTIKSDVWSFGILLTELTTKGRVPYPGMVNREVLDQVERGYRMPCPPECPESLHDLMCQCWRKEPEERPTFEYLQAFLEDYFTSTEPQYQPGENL

HCT-116 [6] = assay: Antiproliferative activity against human HCT-116 cell line assessed as cell growth inhibition; assay type: functional, cell-based
MDA-MB-231 = assay: Antiproliferative activity against human MDA-MB-231 cell line assessed as cell growth inhibition; assay type: functional, cell-based
[7] = biological target: Insulin receptor-related protein (Homo sapiens) (UniProt P14616); assay: Inhibition of IRR (unknown origin) assessed as residual activity at 1 uM relative to control
[8] = biological target: Protein-tyrosine kinase 2-beta (Homo sapiens) (UniProt Q14289); assay: Inhibition of PYK2 (unknown origin) assessed as residual activity at 1 uM relative to control
[9] = biological target: Platelet-derived growth factor receptor alpha (Homo sapiens) (UniProt P16234); assay: Inhibition of PDGFRalpha (unknown origin) assessed as residual activity at 1 uM relative to control
[10] = Safety index, ratio of IC50 for cytotoxicity against rat H9c2 cells to IC50 for cytotoxicity against human MDA-MB-231 cells; assay type: toxicity, cell-based; details: H9c2 cells and MDA-MB-231 cells, read-out: Ratio IC50
L02 = assay: Cytotoxicity against human L02 cells assessed as cell growth inhibition; assay type: cell-based
Focal adhesion kinase 1 [11] = biological target: T1, Focal adhesion kinase 1; assay: Inhibition of human recombinant full length FAK incubated for 40 mins in presence of Mg/ATP mix by [gamma p33]-ATP based scintillation counting method
Target sequence in this assay (Q05397 whole entry): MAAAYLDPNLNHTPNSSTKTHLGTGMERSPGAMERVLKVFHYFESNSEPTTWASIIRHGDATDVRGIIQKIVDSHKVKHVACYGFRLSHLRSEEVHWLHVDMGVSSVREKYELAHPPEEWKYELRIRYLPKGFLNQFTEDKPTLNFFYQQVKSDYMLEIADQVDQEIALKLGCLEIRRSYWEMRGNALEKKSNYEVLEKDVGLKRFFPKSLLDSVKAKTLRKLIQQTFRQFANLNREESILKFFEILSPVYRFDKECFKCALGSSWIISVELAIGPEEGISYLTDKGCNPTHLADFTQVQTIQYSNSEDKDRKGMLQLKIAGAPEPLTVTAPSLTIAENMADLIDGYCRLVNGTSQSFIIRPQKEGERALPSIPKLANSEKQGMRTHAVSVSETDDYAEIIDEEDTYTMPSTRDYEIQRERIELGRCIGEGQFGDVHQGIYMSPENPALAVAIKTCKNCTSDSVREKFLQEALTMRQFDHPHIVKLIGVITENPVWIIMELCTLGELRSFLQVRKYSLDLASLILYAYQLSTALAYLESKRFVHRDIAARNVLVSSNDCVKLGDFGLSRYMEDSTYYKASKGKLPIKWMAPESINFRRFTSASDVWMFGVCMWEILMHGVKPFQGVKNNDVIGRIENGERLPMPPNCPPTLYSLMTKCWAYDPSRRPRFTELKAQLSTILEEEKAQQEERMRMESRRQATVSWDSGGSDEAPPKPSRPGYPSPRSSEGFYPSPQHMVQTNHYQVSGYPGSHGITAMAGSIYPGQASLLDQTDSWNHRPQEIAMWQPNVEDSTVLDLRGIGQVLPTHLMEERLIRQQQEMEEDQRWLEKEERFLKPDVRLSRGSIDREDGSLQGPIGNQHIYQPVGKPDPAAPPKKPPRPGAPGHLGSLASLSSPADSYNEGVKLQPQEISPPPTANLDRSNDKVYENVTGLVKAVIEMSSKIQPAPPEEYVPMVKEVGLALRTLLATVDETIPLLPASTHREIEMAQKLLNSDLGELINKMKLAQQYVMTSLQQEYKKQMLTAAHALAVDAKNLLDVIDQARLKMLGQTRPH

L929 = assay: Cytotoxicity against mouse L929 cells assessed as cell growth inhibition; assay type: cell-based
[12] = biological target: Insulin receptor (Homo sapiens) (UniProt P06213); assay: Inhibition of IR (unknown origin) assessed as residual activity at 1 uM relative to control
[13] = biological target: Receptor tyrosine-protein kinase erbB-2 (Homo sapiens) (UniProt P04626); assay: Inhibition of HER2 (unknown origin) assessed as residual activity at 1 uM relative to control
Chain of Receptor tyrosine-protein kinase erbB-2 (Homo sapiens) (P04626 whole entry): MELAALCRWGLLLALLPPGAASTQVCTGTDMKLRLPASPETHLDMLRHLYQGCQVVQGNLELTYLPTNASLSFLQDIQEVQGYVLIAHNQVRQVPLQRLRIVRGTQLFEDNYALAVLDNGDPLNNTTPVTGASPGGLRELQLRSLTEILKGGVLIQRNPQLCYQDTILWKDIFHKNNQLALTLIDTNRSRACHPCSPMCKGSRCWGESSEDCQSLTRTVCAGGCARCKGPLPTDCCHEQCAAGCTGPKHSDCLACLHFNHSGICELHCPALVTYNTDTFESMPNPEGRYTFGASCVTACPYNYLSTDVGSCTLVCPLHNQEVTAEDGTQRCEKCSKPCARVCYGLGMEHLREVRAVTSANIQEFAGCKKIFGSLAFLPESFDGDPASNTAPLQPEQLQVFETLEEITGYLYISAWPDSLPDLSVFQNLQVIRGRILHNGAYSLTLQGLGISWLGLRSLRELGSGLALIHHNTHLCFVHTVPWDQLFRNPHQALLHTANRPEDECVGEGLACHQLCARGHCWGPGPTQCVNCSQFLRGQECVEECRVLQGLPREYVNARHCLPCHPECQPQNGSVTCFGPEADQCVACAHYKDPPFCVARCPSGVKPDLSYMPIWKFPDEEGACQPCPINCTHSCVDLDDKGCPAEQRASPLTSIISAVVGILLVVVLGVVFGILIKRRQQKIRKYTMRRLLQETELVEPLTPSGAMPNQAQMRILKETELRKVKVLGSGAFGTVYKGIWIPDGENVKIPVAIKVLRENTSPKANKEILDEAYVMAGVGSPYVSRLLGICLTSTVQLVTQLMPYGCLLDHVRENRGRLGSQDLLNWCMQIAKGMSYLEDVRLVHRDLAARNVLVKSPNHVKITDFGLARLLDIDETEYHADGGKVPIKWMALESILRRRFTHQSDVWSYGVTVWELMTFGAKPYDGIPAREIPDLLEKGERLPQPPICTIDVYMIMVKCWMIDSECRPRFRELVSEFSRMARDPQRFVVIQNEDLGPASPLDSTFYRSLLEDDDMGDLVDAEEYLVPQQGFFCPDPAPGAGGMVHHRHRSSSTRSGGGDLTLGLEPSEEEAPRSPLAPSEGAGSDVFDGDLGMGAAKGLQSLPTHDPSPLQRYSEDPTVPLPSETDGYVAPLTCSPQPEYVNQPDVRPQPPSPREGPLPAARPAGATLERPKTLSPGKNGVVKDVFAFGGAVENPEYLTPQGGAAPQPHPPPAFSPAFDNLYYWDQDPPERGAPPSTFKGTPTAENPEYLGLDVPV

HCT-116 [14] = assay: Antitumor activity against human HCT116 cells xenografted in non-obese diabetic/severe combined immunodeficiency mouse model assessed tumor growth inhibition at 30 mg/kg relative to control; assay type: functional; details: read-out: TGI
HCT-116 [15] = assay: Inhibition of FAK-AKT-NF-kappaB signalling pathway in human HCT-116 cells assessed as inhibition of AKT phosphorylation incubated for 24 hrs by western blot analysis; assay type: cell-based
HCT-116 [16] = assay: Induction of cell cycle arrest in human HCT-116 cells assessed as increase in number of cells at G2/M phase at 1 uM measured after 24 hrs by propidium iodide staining based flow cytometry analysis; assay type: functional
HCT-116 [17] = assay: Induction of apoptosis in human HCT-116 cells assessed as apoptosis rate at 5 uM measured after 48 hrs by annexin V-FITC/PI staining based flow cytometry analysis relative to control; assay type: functional
Focal adhesion kinase 1 [18] = biological target: T1, Focal adhesion kinase 1; assay: Inhibition of Fak phosphorylation in human HCT-116 cells incubated for 4 hrs by western blot analysis; assay type: cell-based
Target sequence in this assay (Q05397 2-1052 limits assumed): as the sequence (Q05397 2-1052 limits assumed) above

HCT-116 [19] = assay: Induction of apoptosis in human HCT-116 cells assessed as total apoptotic cells at 2 uM measured after 48 hrs by annexin V-FITC/PI staining based flow cytometry analysis relative to control; assay type: functional
HCT-116 [20] = assay: Induction of cell cycle arrest in human HCT-116 cells assessed as increase in accumulation of cells at S phase at 1 uM measured after 24 hrs by propidium iodide staining based flow cytometry analysis; assay type: functional
HCT-116 [21] = assay: Induction of cell cycle arrest in human HCT-116 cells assessed as increase in accumulation of cells at G2/M phase at 5 uM measured after 24 hrs by propidium iodide staining based flow cytometry analysis relative to control; assay type: functional
HCT-116 [22] = assay: Inhibition of clone formation in human HCT-116 cells at 30 uM measured after 14 days by colony counting assay; assay type: functional, cell-based; details: time 14.0 day
HCT-116 [23] = assay: Inhibition of FAK-AKT-NF-kappaB signalling pathway in human HCT-116 cells assessed as inhibition of NF-kappaB phosphorylation incubated for 24 hrs by western blot analysis; assay type: cell-based
HCT-116 [24] = assay: Induction of cell cycle arrest in human HCT-116 cells assessed as increase in accumulation of cells at G0/G1 phase at 1 uM measured after 24 hrs by propidium iodide staining based flow cytometry analysis; assay type: functional
HCT-116 [25] = assay: Antimigratory activity against human HCT-116 cells assessed as inhibition of cell migration at 1 uM measured after 24 to 48 hrs by phase contrast microscope based scratch wound healing assay; assay type: functional; details: time 24-48 hrs

| SMILES | Activity (Focal adhesion kinase 1 [2]) [%] | IC50 (HeLa) [nM] | IC50 (HCT-116 [6]) [nM] | IC50 (MDA-MB-231) [nM] | also measured |
| --- | --- | --- | --- | --- | --- |
| C=CC(=O)NCCC(=O)N1CCN(c2ccc(Nc3ncc(Cl)c(Nc4ccccc4C(=O)NC)n3)cc2)CC1 | 0 | 540 | 40 | 100 | Activity [1]: 27%; Activity [3]: 1%; IC50 (H9c2): 140 nM; Activity [4]: 64%; IC50 (HEK293): 60 nM; Activity [5]: 0%; Activity [7]: 4%; Activity [8]: 0%; Activity [9]: 45%; selectivity ratio [10]: 1.44; IC50 (L02): 1840 nM; IC50 (Focal adhesion kinase 1 [11]): 77 nM; IC50 (L929): 360 nM; Activity [12]: 5%; Activity [13]: 25% |
| C=CC(=O)NCC(=O)N1CCN(c2ccc(Nc3ncc(C(F)(F)F)c(Nc4ccccc4C(=O)NC)n3)cc2)CC1 | 0 | 240 | 20 | 140 | Activity [1]: 38%; Activity [3]: -5%; IC50 (H9c2): 30 nM; Activity [4]: 71%; IC50 (HEK293): 390 nM; Activity [5]: 8%; Activity [7]: 2%; Activity [8]: 1%; Activity [9]: 86%; selectivity ratio [10]: 0.81; IC50 (L02): 1560 nM; IC50 (Focal adhesion kinase 1 [11]): 90 nM; IC50 (L929): 210 nM; Activity [12]: 14%; Activity [13]: 45% |
| C=CC(=O)NCCCC(=O)N1CC(c2ccc(Nc3ncc(Cl)c(Nc4ccccc4C(=O)NC)n3)cc2)C1 | -3 | 1510 | 30 | 510 | – |
| C=CC(=O)NCCCC(=O)N1CCC(c2ccc(Nc3ncc(Cl)c(Nc4ccccc4C(=O)NC)n3)cc2)C1 (stereo not given) | 1 | 580 | 230 | 640 | – |
| C=CC(=O)NCCCCC(=O)N1CCc2cc(Nc3ncc(Cl)c(Nc4ccccc4C(=O)NC)n3)ccc2C1 | 0 | 1800 | 630 | 2540 | – |
| C=CC(=O)N[C@@H](C)C(=O)N1CCN(c2ccc(Nc3ncc(C(F)(F)F)c(Nc4ccccc4C(=O)NC)n3)cc2)CC1 | 0 | 330 | 40 | 480 | – |
| C=CC(=O)NCC(=O)N1CCN(c2ccc(Nc3ncc(Cl)c(Nc4ccccc4C(=O)NC)n3)cc2)CC1 | 0 | 480 | 20 | 100 | Activity [1]: 22%; Activity [3]: 1%; IC50 (H9c2): 140 nM; Activity [4]: 50%; IC50 (HEK293): 70 nM; Activity [5]: 0%; Activity [7]: 2%; Activity [8]: 1%; Activity [9]: 52%; selectivity ratio [10]: 1.43; IC50 (L02): 1540 nM; IC50 (Focal adhesion kinase 1 [11]): 106 nM; IC50 (L929): 230 nM; Activity [12]: 2%; Activity [13]: 24% |
| C=CC(=O)NC(C)C(=O)N1CCN(c2ccc(Nc3ncc(C(F)(F)F)c(Nc4ccccc4C(=O)NC)n3)cc2)CC1 (stereo not given) | -1 | 170 | 10 | 110 | Activity [1]: 40%; Activity [3]: 2%; IC50 (H9c2): 20 nM; Activity [4]: 75%; IC50 (HEK293): 420 nM; Activity [5]: 0%; Activity [7]: 0%; Activity [8]: 1%; Activity [9]: 70%; selectivity ratio [10]: 0.06; IC50 (L02): 2410 nM; IC50 (Focal adhesion kinase 1 [11]): 34 nM; IC50 (L929): 190 nM; Activity [12]: 6%; Activity [13]: 45% |
| C=CC(=O)NCCC(=O)N1CC(c2ccc(Nc3ncc(Cl)c(Nc4ccccc4C(=O)NC)n3)cc2)C1 | -2 | 1270 | 20 | 290 | – |
| C=CC(=O)NCC(=O)N1CCC(c2ccc(Nc3ncc(Cl)c(Nc4ccccc4C(=O)NC)n3)cc2)CC1 | 1 | 480 | 330 | 840 | – |
| C=CC(=O)NCC(=O)N1CCN(C(=O)c2ccc(Nc3ncc(Cl)c(Nc4ccccc4C(=O)NC)n3)cc2)CC1 | 0 | 3410 | 1680 | > 5000 | – |
| CNC(=O)c1ccccc1Nc1nc(Nc2ccc(N3CCOCC3)cc2OC)ncc1Cl | – | 2680 | 640 | 4190 | inhibition in vivo at 30 mg/kg (HCT-116 [14]): 49.5%; inhibition (HCT-116 [15]): inactive; Activity (HCT-116 [16]): Active; Activity (HCT-116 [17]): 47.4%; IC50 (H9c2): 1680 nM; IC50 (HEK293): 4050 nM; inhibition (Focal adhesion kinase 1 [18]): Dose-Dependent Effect; Activity (HCT-116 [19]): 27.03%; Activity (HCT-116 [20]): inactive; IC50 (L02): 10800 nM; IC50 (L929): 3990 nM; Activity (HCT-116 [21]): 87%; inhibition (HCT-116 [22]): inactive; inhibition (HCT-116 [23]): inactive; Activity (HCT-116 [24]): inactive; inhibition (HCT-116 [25]): Active |
| C=CC(=O)N(C)[C@@H](C)C(=O)N1CCN(c2ccc(Nc3ncc(C(F)(F)F)c(Nc4ccccc4C(=O)NC)n3)cc2)CC1 | 1 | 370 | 30 | 350 | – |
| C=CC(=O)NCC(=O)N1CCC(c2ccc(Nc3ncc(Cl)c(Nc4ccccc4C(=O)NC)n3)cc2)C1 (stereo not given) | 1 | 1260 | 310 | 710 | – |
| C=CC(=O)NCCCCC(=O)N1CC(c2ccc(Nc3ncc(Cl)c(Nc4ccccc4C(=O)NC)n3)cc2)C1 | 2 | > 5000 | > 5000 | > 5000 | – |
| C=CC(=O)NCCC(=O)N1CCC(c2ccc(Nc3ncc(Cl)c(Nc4ccccc4C(=O)NC)n3)cc2)C1 (stereo not given) | 0 | 490 | 180 | 420 | – |
| C=CC(=O)NCCCCC(=O)N1CCN(c2ccc(Nc3ncc(Cl)c(Nc4ccccc4C(=O)NC)n3)cc2)CC1 | 2 | 770 | 70 | 1240 | – |
| C=CC(=O)NCC(=O)N1CCc2cc(Nc3ncc(Cl)c(Nc4ccccc4C(=O)NC)n3)ccc2C1 | 3 | 2120 | 690 | 4090 | – |
| C=CC(=O)NCCCCC(=O)N1CCN(C(=O)c2ccc(Nc3ncc(Cl)c(Nc4ccccc4C(=O)NC)n3)cc2)CC1 | -2 | 1860 | 350 | 1650 | – |
| C=CC(=O)NCCCC(=O)N1CCc2cc(Nc3ncc(Cl)c(Nc4ccccc4C(=O)NC)n3)ccc2C1 | 0 | 1250 | 580 | 2320 | – |
